Laboratory results as given in paper PMC8438977, “Isolation of bioactive compounds from medicinal plants used in traditional medicine: Rautandiol B, a potential lead compound against Plasmodium falciparum” (BMC Complementary Medicine and Therapies, 2021).
In brackets after ≈: the same amount, converted by molar mass. Where two headings read alike, the source gives them in different places.

Assays:
[1] = system: T. brucei rhodesiense (STIB-900); assay: Anti-trypanosomal assay (Alamar Blue, 72 h); assay type: cell-based, Trypanosoma brucei rhodesiense
Procedure: T. brucei rhodesiense (STIB-900) was maintained in Minimal Essential Medium (MEM) with Earle’s salts supplemented with 3 g/L sodium bicarbonate, 4.5 g/L glucose, 25 mM HEPES, pH 7.3, 0.05 mM bathocuproinedisulfonic acid disodium salt, 1.5 mM L-cysteine, 1 mM hypoxanthine, 0.16 mM thymidine, 1 mM sodium pyruvate, 0.2 mM 2-mercaptoethanol, 1% MEM non-essential amino acid, and 15% heated fetal bovine serum, at 37 °C in a 5% CO2 incubator. To assay anti-Tbr activity, a modified reported protocol was used. Briefly, 2 × 10^4 T. brucei rhodesiense parasites in 175 μL culture media were incubated with 25 μL of varying concentrations of each compound in a 96-well plate under the same culture conditions. Following 72 h incubation, 20 μL Alamar Blue (a resazurin solution) was added in each well. The mixture was further incubated for 3 h. The fluorescence signals were measured by a spectrofluorometer at ex530/em585 nm.

[2] = system: Mycobacterium tuberculosis H37Rv (ATCC 27294); assay: Mycobacterium tuberculosis assay (Microplate Alamar Blue Assay, MIC); assay type: cell-based; conditions: pure compounds and controls, read-out: MTB H37Rv (MIC μM)
[3] = system: Plasmodium falciparum TM4/8.2; assay: Antimalaria assay, [3H] hypoxanthine incorporation, TM4/8.2 strain; assay type: cell-based
Procedure: (§1) Plasmodium falciparum TM4/8.2 and K1CB1 strains were maintained in RPMI 1640 medium supplemented with 8% human serum, 2.5 mM HEPES and 2 g/L sodium bicarbonate. Parasite cultures were incubated at 37 °C in a 3% CO2 incubator. The crude extracts/pure compounds were tested against TM4/8.2 and K1CB1 P. falciparum in vitro by the modified [^3H] hypoxanthine incorporation assay. Briefly, stock solutions of the crude extracts or pure compounds were prepared in DMSO. Various concentrations of the samples were incubated with malaria parasites with a final volume of 225 μL, 1% parasitemia, 1.5% hematocrit, 0.1% dimethylsulfoxide (DMSO) in 96-well plates. Plates were incubated for 16–18 h. Then, 25 μL [^3H]-hypoxanthine solution was added and incubated for 20 h. The parasites were harvested onto a UniFilter-96 GF/B plate (PerkinElmer, USA). The filters in the plates were air-dried, and then 25 μL of liquid scintillation fluid (Microscint, Packard) was added. The radioactivity was then measured using a microplate scintillation counter (TopCount, Packard). The IC50 values of the crude extracts/ pure compounds were determined.

[4] = system: Plasmodium falciparum K1CB1; assay: Antimalaria assay, [3H] hypoxanthine incorporation, K1CB1 strain; assay type: cell-based; conditions: for IC50: Plasmodium falciparum, read-out: P. f (IC50 μM) K1CB1
Procedure: as §1

α-glucosidase (AG) = target: T1, α-glucosidase (AG) (Saccharomyces cerevisiae, UniProt P53341); assay: biochemical; set-up: species or system S. cerevisiae; conditions: for IC50: in 50% DMSO; for inhibition at 250 µg/mL: samples 250 μg/mL in 50% DMSO, read-out: % Inhibition (AGI activity)
T1 construct: purchased Sigma
Procedure: AGI values of extracts and pure phytochemicals were quantitatively determined in a 96-well plastic plate according to the method described by Nguyen et al.. The enzyme was incubated with the samples dissolved in DMSO for 5 min before adding the substrate. The inhibition was measured spectrophotometrically in 20 mM sodium phosphate buffer pH 6.0 at 37 °C using 3.0 mM p-nitrophenyl α-D-glucopyranoside (Sigma) as the substrate and 0.25 units/mL of AG from S. cerevisiae (Sigma). The absorbance at 405 nm was measured using a microplate reader (BioTek ELx808 microplate reader, USA).

α-amylase (AA) = assay: α-amylase inhibitory activity (AAI), starch-iodine assay; assay type: biochemical; conditions: in 50% DMSO
Procedure: AAI values were determined using a microplate-based starch–iodine assay. Assay reactions were initiated by adding 40 μL of starch (Sigma S-2630) solution (2.0 g/L) and 40 μL of enzyme in 0.1 M phosphate buffer at pH 7.0 to microplate wells. The enzyme was incubated with the samples for 5 min before adding the substrate. To minimize evaporative loss during incubation, a plastic mat was used to cover the microplate. […] Following color development, the absorbance at 580 nm was measured using a microplate reader (Bio-TEK ELx808 microplate reader, USA).

[5] = earlier reports; cited from earlier work
VERO cells = system: VERO cells; set-up: method as in PMID 32798746; conditions: cited from earlier work
BHK21 cells = system: BHK21 cells; set-up: method as in PMID 32798746; conditions: cited from earlier work
[6] = pure compounds and control; 72 h; read-out: T. br (IC50 μM)
[7] = Trypanosoma brucei, RHODESIENSE, 72 h, pure compounds and control; 72 h; read-out: T. br (IC50 μM)
[8] = pure compounds and controls, strain TM4/8.2, read-out: P. f (IC50 μM) TM4/8.2
[9] = pure compounds and controls, strain K1CB1
[10] = read-out: P. f (IC50 μM) TM4/8.2
[11] = Trypanosoma brucei, RHODESIENSE; pure compounds and control; 72 h; read-out: T. br (IC50 μM)

T1 sequence (P53341 whole entry): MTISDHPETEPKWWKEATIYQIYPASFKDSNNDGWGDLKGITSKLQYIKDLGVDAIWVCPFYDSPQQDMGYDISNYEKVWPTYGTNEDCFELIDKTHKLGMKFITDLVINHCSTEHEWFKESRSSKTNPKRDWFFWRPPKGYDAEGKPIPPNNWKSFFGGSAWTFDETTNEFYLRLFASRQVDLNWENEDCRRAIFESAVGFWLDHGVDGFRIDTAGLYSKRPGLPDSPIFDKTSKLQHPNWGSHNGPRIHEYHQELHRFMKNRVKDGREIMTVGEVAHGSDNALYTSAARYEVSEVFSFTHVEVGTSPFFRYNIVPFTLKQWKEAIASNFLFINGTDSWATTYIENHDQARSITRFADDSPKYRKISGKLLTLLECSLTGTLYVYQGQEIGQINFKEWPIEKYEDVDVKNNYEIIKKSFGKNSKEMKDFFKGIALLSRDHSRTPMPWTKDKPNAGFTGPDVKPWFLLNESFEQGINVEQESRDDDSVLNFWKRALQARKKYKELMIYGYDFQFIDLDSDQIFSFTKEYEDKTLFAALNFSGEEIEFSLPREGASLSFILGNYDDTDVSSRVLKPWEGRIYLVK

Row | Compound | MIC [2] [µM] | IC50 [1, 7] [µM] | IC50 [3, 8] [µM] | IC50 [4, 9] [µM] | inhibition at 250 µg/mL (α-glucosidase (AG)) [%] | further results
1 | CC(C)=CCc1cc2c(cc1O)OC[C@H]1c3cc4c(cc3O[C@@H]21)OCO4 | – | – | – | – | – | SR (safety ratio), T. brucei rhodesiense [1]: > 5.83; IC50 [1, 6]: 4.87 ± 0.49 µM
2 | O=c1c(O)c(-c2ccc(O)cc2)oc2cc(O)cc(O)c12 [Compound 1, kempherol] | > 20 | 10.3 ± 0.38 | > 50 | > 50 | – | IC50 [1, 6]: 8.74 ± 0.49 µM; SR (safety ratio), T. brucei rhodesiense ([1]; safety ratio): 3.3
3 | O=c1c(O)c(-c2ccc(O)c(O)c2)oc2cc(O)cc(O)c12 [Compound 2, quercetin] | > 20 | 8.44 ± 0.16 | > 50 | > 50 | – | IC50 [1, 6]: 8.91 ± 0.03 µM; SR (safety ratio), T. brucei rhodesiense ([1]; safety ratio): 4.52
4 | Oc1cc(O)c2c(c1)O[C@H](c1ccc(O)c(O)c1)[C@@H](O)C2 [Compound 3, (+)-catechin] | > 20 | > 100 | – | > 100 | 97.5 ± 0.6 | IC50 [3, 10]: > 100 µM; IC50 (α-glucosidase (AG)): 360 µM; IC50 (α-amylase (AA)): 2260 µM
5 | OC[C@H]1O[C@@H](OCCc2ccc(O)cc2)[C@H](O)[C@@H](O)[C@@H]1O [Compound 4, salidroside] | > 20 | > 100 | > 100 | > 100 | 47.7 ± 1.8 | IC50 (α-glucosidase (AG)): 1380 µM
6 | c1cc2cc3c(cc2o1)OCc1c-3oc2cc3c(cc12)OCO3 [Compound 5, neoduleen] | > 62.1 | – | > 31 | > 31 | – | –
7 | c1cc2cc3c(cc2o1)OC[C@H]1c2cc4c(cc2O[C@@H]31)OCO4 [Compound 6, neodulin] | > 64.9 | – | > 32.5 | > 32.5 | – | –
8 | COc1cc2c(cc1-c1cc3cc4ccoc4cc3oc1=O)OCO2 [Compound 10, pachyrrhizine] | > 64.7 | – | – | – | – | IC50 [3, 10]: > 32.3 µM; IC50 [4]: > 32.3 µM
9 | COc1cc2c(cc1C1COc3cc4occc4cc3C1=O)OCO2 (stereo not drawn) [Compound 11, neotenone] | > 62 | 17 ± 1.83 | > 31 | > 31 | – | melting point: 174 to 175 °C
10 | COc1ccc2c(c1)OCC(c1cc3c(cc1OC)OCO3)C2=O (stereo not drawn) [Compound 12, 7-methoxy-3-(6-methoxybenzo [d] [1,3]dioxol-5-yl) chroman-4-one] | – | – | – | – | 17.7 ± 0.3 | melting point: 133 to 135 °C
11 | O=C1c2cc3ccoc3cc2O[C@]2(O)COc3cc4c(cc3[C@H]12)OCO4 [Compound 13, 12a-hydroxydolineon] | – | – | – | – | – | melting point: 155 to 156 °C
12 | O=C1c2cc3ccoc3cc2O[C@@H]2COc3cc4c(cc3[C@H]12)OCO4 [Compound 14, dolineon] | > 59.9 | – | – | – | 54.2 ± 8.9 | IC50 [1, 11]: 18.7 ± 3.2 µM; IC50 [3, 10]: > 29.6 µM; IC50 [4]: > 29.6 µM; IC50 (α-glucosidase (AG)): 660 µM
13 | CC(C)=CCc1cc2c(cc1O)OC[C@@H]1c3cc4c(cc3O[C@H]21)OCO4 [Compound 15, (−)-2-isopentenyl-3-hydroxy-8-9-methylenedioxypterocarpan] | > 56.8 | 4.87 ± 0.49 | > 28.4 | > 28.4 | 31.5 ± 2.1 | SR (safety ratio), T. brucei rhodesiense ([1]; safety ratio): > 5.83
14 | COc1ccc(C2COc3cc4occc4cc3C2=O)c(OC)c1OC (stereo not drawn) [Compound 16, nepseudin] | > 56.4 | – | > 28.2 | > 28.2 | – | –
15 | COc1cc2c(cc1O)[C@H]1Oc3cc4c(cc3[C@H]1CO2)OCO4 [Compound 19, (−)-2-hydroxypterocarpin] | > 56.8 | – | > 28.4 | > 28.4 | – | melting point: 223 to 225 °C
16 | C=C(C)[C@H]1Cc2c(ccc3c2O[C@@H]2COc4cc(OC)c(OC)cc4[C@@H]2C3=O)O1 [Compound 20, rotenone] | > 52.3 | – | – | – | – | IC50 ([1]; Trypanosoma brucei, RHODESIENSE, 72 h, read-out: T. br (IC50 μM)): 7.51 ± 0.17 µM; IC50 [3, 10]: > 26.2 µM; IC50 [4]: > 26.2 µM; cytotoxicity [5]: cytotoxic
17 | C=C(C)C1Cc2c(ccc3c2O[C@@H]2COc4cc(OC)c(OC)cc4[C@]2(O)C3=O)O1 (stereo partly drawn) [Compound 21, 12a-hydroxyrotenone] | > 55.2 | – | – | – | 19.9 ± 11.4 | IC50 [1, 11]: 8.63 ± 1.14 µM; IC50 [3, 10]: > 27.6 µM; IC50 [4]: > 27.6 µM; cytotoxicity [5]: cytotoxic
18 | COc1cc2c(cc1-c1coc3cc4occc4cc3c1=O)OCO2 [Compound 22, dehydroneotenone] | > 61.7 | – | > 30.9 | > 30.9 | – | –
19 | CC1(C)Oc2cc3c(cc2CC1O)[C@@H]1Oc2cc(O)ccc2[C@@H]1CO3 (stereo partly drawn) [Compound 23, rautandiol A] | – | – | – | – | 83.9 ± 1 | IC50 (α-glucosidase (AG)): 280 µM; melting point: 194 to 196 °C
20 | CC(C)(O)C1Cc2cc3c(cc2O1)OC[C@H]1c2ccc(O)cc2O[C@@H]31 (stereo partly drawn) [Compound 24, rautandiol B] | > 20 | 23.5 ± 1.59 | 0.4 ± 0.07 | 0.74 ± 0.29 | 29.3 ± 3.1 | SR (safety ratio), P. falciparum K1CB1 ([4]; safety ratio): 133; melting point: 209 to 213 °C; cytotoxicity on VERO cells (VERO cells): non-cytotoxic; cytotoxicity on BHK21 cells (BHK21 cells): non-cytotoxic
21 | CC1(C)N=C(N)N=C(N)N1c1ccc(Cl)cc1 [Cycloguanil, reference compound] | – | – | 0.076 ± 0.016 | 10.7 ± 1.62 | – | –
22 | NNC(=O)c1ccncc1 [Isoniazid, reference compound] | 0.02 (≈ 0.00274 µg/mL) | – | – | – | – | –
23 | N=C(N)c1ccc(OCCCCCOc2ccc(C(=N)N)cc2)cc1 [Pentamidine, reference compound] | – | 0.007 ± 4e-05 | – | – | – | –
24 | CCc1nc(N)nc(N)c1-c1ccc(Cl)cc1 [Pyrimethamine, reference compound] | – | – | 0.095 ± 0.02 | 23.2 ± 2.24 | – | –
25 | CO[C@H]1/C=C/O[C@@]2(C)Oc3c(C)c(O)c4c(O)c(c(/C=N/N5CCN(C)CC5)c(O)c4c3C2=O)NC(=O)/C(C)=C\C=C\[C@H](C)[C@H](O)[C@@H](C)[C@@H](O)[C@@H](C)[C@H](OC(C)=O)[C@@H]1C [Rifampin, reference compound] | 0.08 (≈ 0.0658 µg/mL) | – | – | – | – | –
